Target: T1, recombinant autotaxin (Homo sapiens, UniProt Q13822)
T1 construct: made in house; host or cells: Hi5 insect cells (baculovirus)
Assay: Autotaxin test (enzyme test), Amplex Red fluorescence with LPC substrate
Format: biochemical
Settings: autotaxin inhibition (enzyme test); for remaining activity at 10 µM: 10 μM compound, read-out: % Control at 10 μM
Experimental: Autotaxin Inhibition (Enzyme Test)
Autotaxin Test (Enzyme Test)
The autotaxin activity is measured indirectly using Amplex Red reagent. Amplex Red is measured here as fluorogenic indicator for the H2O2 formed. In detail, autotaxin converts the substrate lysophosphatidylcholine (LPC) into phosphocholine and lysophosphatidylic acid (LPA). After this reaction, the phosphocholine is reacted with alkaline phosphatase to give inorganic phosphate and choline. In the next step, choline is oxidised by choline oxidase to give betaine, with formation of H2O2. H2O2 reacts with Amplex Red reagent in the presence of peroxidase (horseradish peroxidase) in a 1:1 stoichiometry and forms the highly fluorescent resorufin. The fluorescence is measured in a reaction-dependent kinetic mode in order that fluorescent signals from possible other fluorescent substances which are not involved in the reaction can be corrected out.
3 μl of a standard solution or of the test substances (substances with the name A(n)) in individual concentrations dissolved in 20 mM Hepes pH 7.2 with a maximum of 11% of DMSO are pre-incubated together with 20 μl (19 ng) of highly purified recombinant autotaxin in test buffer in a black microtitre plate provided with 384 wells at 22° C. for 30 min. The reaction is then initiated by addition of 10 μl of L-α-lysophosphatidylcholine (LPC), where the final concentration of LPC is 75 μM. The mixture is incubated at 37° C. for 90 min. After the incubation, Amplex Red reagent, peroxidase (horseradish peroxidase) and choline oxidase is added, and the fluorescence is immediately measured at 612 nm with excitation of 485 nm in a “Tecan Ultra multimode” reader. The activity of autotaxin is calculated indirectly via detection of the H2O2 formed.
• Microtitre plate: PS microplate, 384 wells, small volume, black Corning, Cat#3677 • Protein: recombinant autotaxin (Baculovirale Hi5 Expression) • Substrate: L-α-lysophosphatidylcholine (chicken egg)); Avanti Polar Lipids #830071 P • Standard: C14 LPA, Avanti Polar Lipids, Cat#857120P • Detection reagent: Amplex Red reagent; Invitrogen #A12222; 5 mg dissolved in 1.923 ml of DMSO peroxidase type VI-A (horseradish) from Sigma #P6782; 5 mg dissolved in 7.45 ml of test buffer, choline oxidase; Sigma # C5896; 50 U dissolved in 2.47 ml of test buffer • Detection reagent mix: 1:50 dilution of detection reagent in test buffer • Test buffer: 10 mM Tris HCl, Merck, Cat #1.08219, pH 8, 1 mM; CaCl2×2 H2O, Merck #1.02382

remaining activity at 10 µM	IC50	Structure (SMILES)
70%	> 1000 nM	CC(C)(C)CC(=O)N1CCN2C(=O)c3cc(-c4ccc(C(F)(F)F)cc4)ccc3NC(=O)C2C1 (stereo not drawn) [Compound A18, 2-(3,3-Dimethylbutyryl)-7-(4-trifluoromethylphenyl)-1,3,4,11a-tetrahydro-2H,10H-2,4a,10-triaza-dibenzo[a,d]cycloheptene-5,11-dione]
65%	> 1000 nM	CC(C)(C)CC(=O)N1CCN2C(=O)c3cc(-c4cc(Cl)cc(Cl)c4)ccc3NC(=O)C2C1 (stereo not drawn) [Compound A19, 7-(3,5-Dichlorophenyl)-2-(3,3-dimethylbutyryl)-1,3,4,11a-tetrahydro-2H,10H-2,4a,10-triaza-dibenzo[a,d]cycloheptene-5,11-dione]
63%	> 1000 nM	O=C1Nc2ccc(-c3ccccc3F)cc2C(=O)N2CCN(C(=O)CCc3ccccn3)CC12 (stereo not drawn) [Compound A20, 7-(2-Fluorophenyl)-2-(3-pyridin-2-ylpropionyl)-1,3,4,11a-tetrahydro-2H,10H-2,4a,10-triaza-dibenzo[a,d]cycloheptene-5,11-dione]
82%	> 1000 nM	O=C1Nc2ccc(-c3ccc(Cl)cc3)cc2C(=O)N2CCN(C(=O)[C@@H]3CCCCN3)CC12 (stereo partly drawn) [Compound A21, 7-(4-Chlorophenyl)-2-((S)-piperidine-2-carbonyl)-1,3,4,11a-tetrahydro-2H,10H-2,4a,10-triaza-dibenzo[a,d]cycloheptene-5,11-dione]
61%	> 1000 nM	CS(=O)(=O)CC(=O)N1CCN2C(=O)c3cc(-c4ccc(Cl)cc4)ccc3NC(=O)C2C1 (stereo not drawn) [Compound A22, 7-(4-Chlorophenyl)-2-(2-methanesulfonylacetyl)-1,3,4,11a-tetrahydro-2H,10H-2,4a,10-triaza-dibenzo[a,d]cycloheptene-5,11-dione]
54%	> 1000 nM	CCCc1nn(C)cc1C(=O)N1CCN2C(=O)c3cc(-c4ccc(Cl)cc4)ccc3NC(=O)C2C1 (stereo not drawn) [Compound A23, 7-(4-Chlorophenyl)-2-(1-methyl-3-propyl-1H-pyrazole-4-carbonyl)-1,3,4,11a-tetrahydro-2H,10H-2,4a,10-triazadibenzo[a,d]cycloheptene-5,11-dione]
67%	> 1000 nM	O=C1Nc2ccc(-c3ccc(Cl)cc3)cc2C(=O)N2CCN(C(=O)CC3CCCCC3)CC12 (stereo not drawn) [Compound A24, 7-(4-Chlorophenyl)-2-(2-cyclohexylacetyl)-1,3,4,11a-tetrahydro-2H,10H-2,4a,10-triaza-dibenzo[a,d]cycloheptene-5,11-dione]
11%	> 1000 nM	O=C1Nc2ccc(-c3ccc(Cl)cc3)cc2C(=O)N2CCN(C(=O)CC3CCCC3)CC12 (stereo not drawn) [Compound A25, 7-(4-Chlorophenyl)-2-(2-cyclopentylacetyl)-1,3,4,11a-tetrahydro-2H,10H-2,4a,10-triaza-dibenzo[a,d]cycloheptene-5,11-dione]
12%	> 1000 nM	Cn1cc(CCC(=O)N2CCN3C(=O)c4cc(-c5ccc(Cl)cc5)ccc4NC(=O)C3C2)cn1 (stereo not drawn) [Compound A26, 7-(4-Chlorophenyl)-2-[3-(1-methyl-1H-pyrazol-4-yl)-propionyl]-1,3,4,11a-tetrahydro-2H,10H-2,4a,10-triazadibenzo[a,d]cycloheptene-5,11-dione]
4%	> 1000 nM	O=C1Nc2ccc(-c3ccc(Cl)cc3F)cc2C(=O)N2CCN(C(=O)CC3CC3)CC12 (stereo not drawn) [Compound A28, 7-(4-Chloro-2-fluorophenyl)-2-(2-cyclopropylacetyl)-1,3,4,11a-tetrahydro-2H,10H-2,4a,10-triaza-dibenzo[a,d]cycloheptene-5,11-dione]
51%	> 1000 nM	O=C1Nc2ccc(-c3ccc(Cl)cc3)cc2C(=O)N2CCN(C(=O)Cc3ccccn3)CC12 (stereo not drawn) [Compound A29, 7-(4-Chlorophenyl)-2-(2-pyridin-2-ylacetyl)-1,3,4,11a-tetrahydro-2H,10H-2,4a,10-triaza-dibenzo[a,d]cycloheptene-5,11-dione]
23%	> 1000 nM	O=C1Nc2ccc(-c3ccc(Cl)cc3F)cc2C(=O)N2CCN(C(=O)Cc3ccccn3)CC12 (stereo not drawn) [Compound A30, 7-(4-Chloro-2-fluorophenyl)-2-(2-pyridin-2-ylacetyl)-1,3,4,11a-tetrahydro-2H,10H-2,4a,10-triaza-dibenzo[a,d]cycloheptene-5,11-dione]
17%	> 1000 nM	O=C1Nc2ccc(-c3ccc(Cl)cc3F)cc2C(=O)N2CCN(C(=O)Cc3ccccc3)CC12 (stereo not drawn) [Compound A31, 7-(4-Chloro-2-fluorophenyl)-2-phenylacetyl-1,3,4,11a-tetrahydro-2H,10H-2,4a,10-triaza-dibenzo[a,d]cycloheptene-5,11-dione]
76%		O=C1Nc2ccc(-c3ccc(Cl)cc3)cc2C(=O)N2CCN(C(=O)Cc3ccccc3)CC12 (stereo not drawn) [Compound A32, 7-(4-Chlorophenyl)-2-phenylacetyl-1,3,4,11a-tetrahydro-2H,10H-2,4a,10-triazadibenzo[a,d]-cycloheptene-5,11-dione]
72%	> 1000 nM	CC(C)(C)CCN1CCN2C(=O)c3cc(-c4ccc(Cl)cc4F)ccc3NC(=O)C2C1 (stereo not drawn) [Compound A33]
	100 to 1000 nM	CC(C)(C)[C@H](O)C(=O)N1CCN2C(=O)c3cc(-c4ccc(Cl)cc4)ccc3NC(=O)C2C1 (stereo partly drawn) [Compound A34, 7-(4-Chlorophenyl)-2-((S)-2-hydroxy-3,3-dimethylbutyryl)-1,3,4,11a-tetrahydro-2H,10H-2,4a,10-triazadibenzo[a,d]cycloheptene-5,11-dione]
11%	> 1000 nM	O=C(C(=O)N1CCN2C(=O)c3cc(-c4ccc(Cl)cc4)ccc3NC(=O)C2C1)c1ccccc1 (stereo not drawn) [Compound A35, 7-(4-Chlorophenyl)-2-(2-oxo-2-phenylacetyl)-1,3,4,11a-tetrahydro-2H,10H-2,4a,10-triaza-dibenzo[a,d]cycloheptene-5,11-dione]
	100 to 1000 nM	O=C1Nc2ccc(-c3ccc(Cl)cc3)cc2C(=O)N2CCN(C(=O)c3cscn3)CC12 (stereo not drawn) [Compound A36, 7-(4-Chlorophenyl)-2-(thiazole-4-carbonyl)-1,3,4,11a-tetrahydro-2H,10H-2,4a,10-triaza-dibenzo[a,d]cycloheptene-5,11-dione]
66%	> 1000 nM	Cc1nc(C(=O)N2CCN3C(=O)c4cc(-c5ccc(Cl)cc5)ccc4NC(=O)C3C2)c(N)s1 (stereo not drawn) [Compound A37, 2-(5-Amino-2-methylthiazole-4-carbonyl)-7-(4-chlorophenyl)-1,3,4,11a-tetrahydro-2H,10H-2,4a,10-triazadibenzo[a,d]cycloheptene-5,11-dione]
35%	> 1000 nM	O=C1Nc2ccc(-c3ccc(Cl)cc3)cc2C(=O)N2CCN(C(=O)C(O)c3ccc(Cl)cc3)CC12 (stereo not drawn) [Compound A38, 7-(4-Chlorophenyl)-2-[2-(4-chlorophenyl)-2-hydroxyacetyl]-1,3,4,11a-tetrahydro-2H,10H-2,4a,10-triazadibenzo[a,d]cycloheptene-5,11-dione]
22%	> 1000 nM	CC(O)(C(=O)N1CCN2C(=O)c3cc(-c4ccc(Cl)cc4)ccc3NC(=O)C2C1)c1ccccc1 (stereo not drawn) [Compound A39, 7-(4-Chlorophenyl)-2-(2-hydroxy-2-phenylpropionyl)-1,3,4,11a-tetrahydro-2H,10H-2,4a,10-triazadibenzo[a.d]cycloheptene-5,11-dione]

— patent US20120115852A1, “HETEROCYCLIC COMPOUNDS AS AUTOTAXIN INHIBITORS” (Merck Patent Gesellschaft Mit Beschrankter Haftung, priority 2009, published 2012)
